From patent publication US7604949B2, “Methods and compositions that affect melanogenesis” (New York University, priority 1999, dated 2009)

Legend:
[1] = test system: melan-p1 cells; assay: Secretion of tyrosinase into medium of melan-p1 cells with protease inhibitor; type: cell-based, mouse
Protocol: (§1) (A) Melan-p1 cells incubated in low (0.03 mM) tyrosine and high (0.3 mM) tyrosine (TYR) were treated for 48 hours with increasing concentrations of the protease inhibitor E64 (μM). The tyrosinase activity in the media is expressed as a percentage of total activity in the extract and medium. (B) The concentration of melanin was determined by solubilizing the cell pellet and measuring the absorbance at 470 nm.
Tyrosinase is a type I membrane protein anchored in the membrane, and it is thus likely that proteolysis, which leads to the clipping of the tail, is required for secretion. The truncated protein would not be detected by αPEP7, which is directed against the tail, although the catalytic domains would remain functional. We, therefore, examined the effects of a series of protease inhibitors on the secretion of tyrosinase by melan-a and melan-p1 cells.
(§2) If proteolysis and secretion of tyrosinase were the precipitating factor in the misrouting of tyrosinase, then E64 should increase melanin accumulation in melan-p1 cells. […] A range of E64 concentrations was tested at low (0.03 mM) and high (0.3 mM) tyrosine.

[2] = test system: melan-p1 cells; assay: Melanin content of melan-p1 cells with protease inhibitor; type: cell-based, mouse; conditions: melan-p1, high concentrations of tyrosine
Protocol: as §1, §2

SMILES: CC(C)C[C@H](NC(=O)[C@H]1O[C@@H]1C(=O)O)C(=O)NCCCCN=C(N)N [E64]
- tyrosinase activity in the media as percentage of total activity in extract and medium ([1]; melan-p1, 0.03 mM tyrosine, 12.5 μM E64, 48 hours (untreated 7.1%)): 4.0%
- tyrosinase activity in the media as percentage of total activity in extract and medium ([1]; melan-p1, 0.03 mM tyrosine, 25 μM E64, 48 hours (untreated 7.1%)): 3.8%
- tyrosinase activity in the media as percentage of total activity in extract and medium ([1]; melan-p1, 0.3 mM tyrosine, E64, 48 hours (untreated 6.5%)): 3.9%
- intracellular melanin production [2]: reduced intracellular melanin production
